Laboratory results: the supplement of paper PMC6045584
± gives the standard deviation of the averaged measurements.

Tests used:
[1] = compound: T1, Nc1nc2[nH]cnc2c(=S)[nH]1 [TIOGUANINE]; assay: area under dose-response curve of surviving fraction (unscaled, Aref=0) (surviving fraction x log10(nM)); higher = more resistant; conditions: exposure time: 5 days; dose range 0.5-1000 nM
Summary of the method: (§1)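 Three screens per tumour cell line were run in 384-well plates at eight inhibitor concentrations from 0.5 to 1000 nM over five days. Surviving fractions, from CellTiter-Glo luminescence normalised to DMSO-only wells, were fitted with 3-parameter logistic curves in the drc R package. The reported area under the curve is the unscaled activity area. It spans log10 dose, and Aref is 0.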

[2] = compound: T2, CNC(=O)c1ccc(N2C(=S)N(c3ccc(C#N)c(C(F)(F)F)c3)C(=O)C2(C)C)cc1F [MDV3100]; assay: as above; conditions: exposure time: 5 days; dose range 0.5-1000 nM
Summary of the method: as §1

[3] = compound: T3, C=CC(=O)Nc1cc2c(Nc3ccc(F)c(Cl)c3)ncnc2cc1OCCCN1CCOCC1 [CANERTINIB]; assay: as above; conditions: exposure time: 5 days; dose range 0.5-1000 nM
Summary of the method: as §1

[4] = compound: T4, CC[C@@H]1C(=O)N(C)c2cnc(Nc3ccc(C(=O)NC4CCN(C)CC4)cc3OC)nc2N1C1CCCC1 [BI-2536]; assay: as above; conditions: exposure time: 5 days; dose range 0.5-1000 nM
Summary of the method: as §1

[5] = compound: T5, CC1(C)CC(=O)c2c(C(F)(F)F)nn(-c3ccc(C(N)=O)c(N[C@H]4CC[C@H](OC(=O)CN)CC4)c3)c2C1 [SNX-5422]; assay: as above; conditions: exposure time: 5 days; dose range 0.5-1000 nM
Summary of the method: as §1

[6] = compound: T6, CN(C)C/C=C/C(=O)Nc1cc2c(Nc3ccc(F)c(Cl)c3)ncnc2cc1O[C@H]1CCOC1 [AFATINIB]; assay: as above; conditions: exposure time: 5 days; dose range 0.5-1000 nM
Summary of the method: as §1

[7] = compound: T7, CCCCCCCCCCCCCCCC(=O)Nc1ccn([C@@H]2O[C@H](CO)[C@@H](O)[C@@H]2C#N)c(=O)n1 [SAPACITABINE]; assay: as above; conditions: exposure time: 5 days; dose range 0.5-1000 nM
Summary of the method: as §1

[8] = compound: T1, TIOGUANINE; assay: surviving fraction relative to DMSO-only wells; higher = less growth inhibition; conditions: exposure time: 5 days
Summary of the method: (§2)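 Viability was scored with CellTiter-Glo luminescence and normalised to the median of DMSO-only wells as surviving fraction. Beforehand, log-phase tumour cell lines were seeded at 250–500 cells per well in 384-well plates, allowed 24 hours, and exposed continuously for five days to inhibitors at 0.5, 1, 5, 10, 50, 100, 500 and 1000 nM. Only lines whose three screens gave replicate Pearson r >0.7 and median Z' >0.3 were kept.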

[9] = compound: T2, MDV3100; assay: as above; conditions: exposure time: 5 days
Summary of the method: as §2

[10] = compound: T3, CANERTINIB; assay: as above; conditions: exposure time: 5 days
Summary of the method: as §2

[11] = compound: T4, BI-2536; assay: as above; conditions: exposure time: 5 days
Summary of the method: as §2

[12] = compound: T5, SNX-5422; assay: as above; conditions: exposure time: 5 days
Summary of the method: as §2

[13] = compound: Cn1cc(C2=Nc3cc(NC(=O)C(N)C4CCCCC4)cc4c3C2=CNNC4=O)cn1; assay: as above; conditions: exposure time: 5 days
Summary of the method: as §2

[14] = compound: T6, AFATINIB; assay: as above; conditions: exposure time: 5 days
Summary of the method: as §2

[15] = compound: T7, SAPACITABINE; assay: as above; conditions: exposure time: 5 days
Summary of the method: as §2

Q: For SCC47 HEADNECK, which “area under dose-response curve” value [1] is on record?
A: 2.97

Q: What about the “area under dose-response curve” value [2] of the same test system?
A: 3.22

Q: What about the “area under dose-response curve” value [3] of the same test system?
A: 2.83

Q: What about the “area under dose-response curve” value [4] of the same test system?
A: 1.87

Q: And the “area under dose-response curve” value [5]?
A: 2.08

Q: What about the “area under dose-response curve” value [6] of the same test system?
A: 2.35

Q: What about the “area under dose-response curve” value [7] of the same test system?
A: 3.12

Q: And the surviving fraction ([8]; 0.5 nM)?
A: 0.796 ± 0.02

Q: And the surviving fraction ([8]; 1 nM)?
A: 0.834 ± 0.05

Q: What about the surviving fraction ([8]; 5 nM) of the same test system?
A: 0.969 ± 0.043

Q: And the surviving fraction ([8]; 10 nM)?
A: 0.961 ± 0.061

Q: And the surviving fraction ([8]; 50 nM)?
A: 0.98 ± 0.035

Q: What about the surviving fraction ([8]; 100 nM) of the same test system?
A: 0.966 ± 0.045

Q: What about the surviving fraction ([8]; 500 nM) of the same test system?
A: 0.854 ± 0.082

Q: And the surviving fraction ([8]; 1000 nM)?
A: 0.803 ± 0.039

Q: What about the surviving fraction ([9]; 0.5 nM) of the same test system?
A: 0.936 ± 0.15

Q: And the surviving fraction ([9]; 1 nM)?
A: 0.826 ± 0.021

Q: What about the surviving fraction ([9]; 5 nM) of the same test system?
A: 1 ± 0.04

Q: And the surviving fraction ([9]; 10 nM)?
A: 1.05 ± 0.21

Q: And the surviving fraction ([9]; 50 nM)?
A: 1.09 ± 0.17

Q: What about the surviving fraction ([9]; 100 nM) of the same test system?
A: 1.03 ± 0.14

Q: What about the surviving fraction ([9]; 500 nM) of the same test system?
A: 0.906 ± 0.04

Q: And the surviving fraction ([9]; 1000 nM)?
A: 0.829 ± 0.11

Q: What about the surviving fraction ([10]; 0.5 nM) of the same test system?
A: 0.828 ± 0.025

Q: What about the surviving fraction ([10]; 1 nM) of the same test system?
A: 0.921 ± 0.088

Q: What about the surviving fraction ([10]; 5 nM) of the same test system?
A: 0.881 ± 0.048

Q: What about the surviving fraction ([10]; 10 nM) of the same test system?
A: 0.889 ± 0.028

Q: And the surviving fraction ([10]; 50 nM)?
A: 0.9577 ± 0.0083

Q: What about the surviving fraction ([10]; 100 nM) of the same test system?
A: 0.805 ± 0.032

Q: And the surviving fraction ([10]; 500 nM)?
A: 0.681 ± 0.015

Q: What about the surviving fraction ([10]; 1000 nM) of the same test system?
A: 0.432 ± 0.044

Q: What about the surviving fraction ([11]; 0.5 nM) of the same test system?
A: 1.05 ± 0.095

Q: And the surviving fraction ([11]; 1 nM)?
A: 1.01 ± 0.066

Q: And the surviving fraction ([11]; 5 nM)?
A: 0.455 ± 0.013

Q: What about the surviving fraction ([11]; 10 nM) of the same test system?
A: 0.367 ± 0.034

Q: What about the surviving fraction ([11]; 50 nM) of the same test system?
A: 0.403 ± 0.046

Q: What about the surviving fraction ([11]; 100 nM) of the same test system?
A: 0.464 ± 0.045

Q: What about the surviving fraction ([11]; 500 nM) of the same test system?
A: 0.437 ± 0.018

Q: And the surviving fraction ([11]; 1000 nM)?
A: 0.356 ± 0.02

Q: And the surviving fraction ([12]; 0.5 nM)?
A: 1.09 ± 0.084

Q: And the surviving fraction ([12]; 1 nM)?
A: 1.17 ± 0.07

Q: And the surviving fraction ([12]; 5 nM)?
A: 1.14 ± 0.069

Q: And the surviving fraction ([12]; 10 nM)?
A: 1.12 ± 0.048

Q: And the surviving fraction ([12]; 50 nM)?
A: 0.483 ± 0.0098

Q: And the surviving fraction ([12]; 100 nM)?
A: 0.184 ± 0.015

Q: What about the surviving fraction ([12]; 500 nM) of the same test system?
A: 0.0747 ± 0.0047

Q: And the surviving fraction ([12]; 1000 nM)?
A: 0.071 ± 0.0027

Q: And the surviving fraction ([13]; 0.5 nM)?
A: 1.02 ± 0.015

Q: What about the surviving fraction ([13]; 1 nM) of the same test system?
A: 1.03 ± 0.13

Q: And the surviving fraction ([13]; 5 nM)?
A: 1.1 ± 0.065

Q: And the surviving fraction ([13]; 10 nM)?
A: 1.08 ± 0.11

Q: What about the surviving fraction ([13]; 50 nM) of the same test system?
A: 1 ± 0.027

Q: And the surviving fraction ([13]; 100 nM)?
A: 1.01 ± 0.054

Q: And the surviving fraction ([13]; 500 nM)?
A: 0.981 ± 0.011

Q: And the surviving fraction ([13]; 1000 nM)?
A: 0.81 ± 0.094

Q: And the surviving fraction ([14]; 0.5 nM)?
A: 1.05 ± 0.021

Q: What about the surviving fraction ([14]; 1 nM) of the same test system?
A: 0.98 ± 0.078

Q: What about the surviving fraction ([14]; 5 nM) of the same test system?
A: 0.88 ± 0.11

Q: And the surviving fraction ([14]; 10 nM)?
A: 0.707 ± 0.037

Q: And the surviving fraction ([14]; 50 nM)?
A: 0.629 ± 0.064

Q: What about the surviving fraction ([14]; 100 nM) of the same test system?
A: 0.604 ± 0.034

Q: And the surviving fraction ([14]; 500 nM)?
A: 0.546 ± 0.026

Q: What about the surviving fraction ([14]; 1000 nM) of the same test system?
A: 0.373 ± 0.014

Q: What about the surviving fraction ([15]; 0.5 nM) of the same test system?
A: 0.937 ± 0.093

Q: And the surviving fraction ([15]; 1 nM)?
A: 0.939 ± 0.063

Q: And the surviving fraction ([15]; 5 nM)?
A: 0.982 ± 0.063

Q: What about the surviving fraction ([15]; 10 nM) of the same test system?
A: 0.948 ± 0.072

Q: And the surviving fraction ([15]; 50 nM)?
A: 1.05 ± 0.057

Q: What about the surviving fraction ([15]; 100 nM) of the same test system?
A: 0.988 ± 0.079

Q: What about the surviving fraction ([15]; 500 nM) of the same test system?
A: 0.71 ± 0.033

Q: And the surviving fraction ([15]; 1000 nM)?
A: 0.597 ± 0.0027
